Measurements as given in BigSolDB 2.1.

C[C@H]1[C@H](C)CC[C@]2(C(=O)O)CC[C@]3(C)C(=CC[C@@H]4[C@@]5(C)CC[C@H](O)C(C)(C)[C@@H]5CC[C@]43C)[C@H]12
solubility (mole fraction)
Conditions	278.15 K	283.15 K	288.15 K	293.15 K	298.15 K	303.15 K	308.15 K	313.15 K	318.15 K	323.15 K
in acetone	0.000384	0.000473	0.00058	0.000707	0.000836	0.001	0.00119	0.00139	0.00162	0.00187
in methanol	0.000447	0.000505	0.000579	0.000662	0.000746	0.000842	0.000955	0.00107	0.00121	0.00135
in water	1.16e-07	1.34e-07	1.55e-07	1.76e-07	2.02e-07	2.28e-07	2.57e-07	2.88e-07	3.18e-07	3.54e-07
